The values that follow come from publication PMC9866601, “Constituents of Pulicaria inuloides and Cytotoxic Activities of Two Methoxylated Flavonols” (Molecules, 2023).

The subject of one series is PNT-2 cells. In words: MTT cytotoxicity assay, normal prostate epithelial cells PNT-2. The class given is cell-based. To be noted: Homo sapiens, PNT2. Here is the method: (§1) Cytotoxic activity was tested on human cancer and normal cells, namely: prostate cancer cell lines DU145 (ATCC HTB-81) and PC3 (ATCC CRL-1435), prostate epithelial cells PNT-2 (ECACC 95012613), melanoma cell lines A375 (ATCC CRL-1619) and HTB140 (ATCC Hs 294T) and skin keratinocytes HaCaT (obtained as a kind gift from prof. Marta Michalik, Department of Cell Biology, Jagiellonian University). DU145 cells were grown in a modified Eagle’s medium with a low (1.0 g/L) glucose concentration, as well as PC3 and PNT-2 cells in Dulbecco’s modified Eagle’s media: F12 HAM nutrient mixture. At the same time, melanoma cells and keratinocytes were maintained in a modified Eagle’s medium with a high (4.5 g/L) glucose concentration. The culture media (all supplied by Sigma-Aldrich Co.; St. Louis, MO, USA) contained antibiotics and 10% fetal bovine serum (FBS). All cultures were maintained at 37 °C in a humidified 5% CO2-containing atmosphere.
(§2) The examined flavonols were diluted in the culture media from freshly made stock solutions in MeOH (10 mg/mL) to the working concentrations (from 5 to 100 μg/mL).
(§3) Cells were seeded in 96-well plates (1.5 × 10^4 cells/well) and preincubated for 24 h (37 °C, 5% CO2). Then, the culture medium was replaced with a fresh medium containing different concentrations of the tested compounds (5–100 µg/mL). The incubation lasted 48 h. Cell viability was measured by an MTT assay, as previously described. The absorbance at 490 nm was measured using a Synergy II Biotek (BioTek Instruments, Winooski, VT, USA) microplate reader. Cytotoxic activity was assessed based on the cell viability expressed as the percentage of living cells. The results were the means of three independent measurements (±SD). Doxorubicin (Ebewe Pharma GmbH., Unterach, Austria) was used as a reference cytostatic drug. The IC50 values were determined by plotting the percentage viability of the cells versus the concentration and adequate calculations made using either Excel or the AAT Bioquest website program (https://www.aatbio.com/tools/ic50-calculator, accessed on 4 September 2022).
A general note: Formazan colour is commonly taken as a measure of viable cells.

A further series has as its system DU145 cells. In words: MTT cytotoxicity assay, prostate cancer cells DU145. The class given is cell-based. To be noted: Homo sapiens, DU-145. Here is the method:
as §1, §2, §3

In the next series the test system is PC3 cells. As to the kind of experiment: MTT cytotoxicity assay, prostate cancer cells PC3. The class given is cell-based. To be noted: Homo sapiens, PC-3, 48 h, 48 h treatment. As to the method:
as §1, §2, §3

Another series relates to HaCaT cells. As to the kind of experiment: MTT cytotoxicity assay, skin keratinocytes HaCaT. The class given is cell-based, human. To be noted: for IC50: Homo sapiens, HaCaT. Here is the method:
as §1, §2, §3

The test system of a further series is A375 cells. In words: MTT cytotoxicity assay, melanoma cells A375. The class given is cell-based, human. To be noted: for IC50: Homo sapiens, A-375. As to the method:
as §1, §2, §3

For a further series, the system named is HTB140 cells. In words: MTT cytotoxicity assay, melanoma cells HTB140. To be noted: for IC50: Homo sapiens. The class given is cell-based, human. As to the method: as §1, §2, §3
A further series relates to HeLa cells. Further details: method as in PMID 30673162. To be noted: in vitro; cited from earlier work.
For another series, the system named is A549 cells. Details: method as in PMID 30673162. To be noted: in vitro; cited from earlier work.
Another series relates to cholinesterase. Further details: method as in PMID 30673162. To be noted: cited from earlier work.
Where [1] appears, read: 48 h treatment, 5–100 μg/mL, MTT, read-out: IC50 PNT-2.
[2] abbreviates: 48 h treatment, 5–100 μg/mL, MTT, read-out: IC50 DU145.
Where [3] appears, read: 48 h treatment, 5–100 μg/mL, MTT, read-out: IC50 HaCaT.
[4] abbreviates: 48 h treatment, 5–100 μg/mL, MTT, read-out: IC50 A375.
Setting [5] is: 48 h treatment, 5–100 μg/mL, MTT, read-out: IC50 HTB140.

Where two headings read alike, the source gives them in different places.

In general, IC50 refers to the concentration needed to halve the response being measured. For the molecule `COc1cc(-c2oc3cc(OC)c(O)c(O)c3c(=O)c2OC)ccc1O` [Compound 11, quercetagetin 3,7,3′-trimethyl ether], the half-inhibitory concentration (IC50) in the series with PNT-2 cells (setting [1]) was 82.4 ± 2.42 µg/mL; with PNT-2 cells (abstract, value in µM, read-out: IC50 PNT2 (remaining cell lines)), more than 150 µM; with DU145 cells (setting [2]), 54.87 ± 0.23 µg/mL; in the series on DU145 cells (abstract, value in µM, read-out: IC50 DU145 (remaining cell lines)), more than 150 µM; in the series with PC3 cells (5–100 μg/mL) it was 16.8 ± 0.77 µg/mL; in the series with PC3 cells (value in µM), 46.6 µM. The 50% inhibitory concentration (IC50) in the series with HaCaT cells (setting [3]) is more than 100 µg/mL; in the series on HaCaT cells (abstract, value in µM, read-out: IC50 HaCaT (remaining cell lines)), more than 150 µM; in the series with A375 cells (setting [4]) it was more than 100 µg/mL; in the series on A375 cells (abstract, value in µM, read-out: IC50 A375 (remaining cell lines)), more than 150 µM; in the series with HTB140 cells (setting [5]), more than 100 µg/mL; with HTB140 cells (abstract, value in µM, read-out: IC50 HTB140 (remaining cell lines)), more than 150 µM. The “cytotoxic activity toward keratinocytes” value in the series on HaCaT cells (dose range of 5–100 μg/mL) was “not active”. For the same molecule, the “cytotoxic activity toward melanoma cells (A375)” value in the series on A375 cells (dose range of 5–100 μg/mL) is listed as “not active”. In the series with HTB140 cells (dose range of 5–100 μg/mL), the “cytotoxic activity toward melanoma cells (HTB140)” value is given as “not active”.
Regarding `C=C1CC/C=C(/CO)C(=O)C[C@@H]2[C@@H]1C[C@]2(C)COC(C)=O` [Compound 9, (1S,9R)-12β-acetoxy-14-hydroxycaryophyll-5(6)-en-7-one], in the series with HeLa cells, the “cytotoxic activity against HeLa cells” value was “moderate cytotoxic activity”. Also, the “cytotoxic activity against A549 cells” value with A549 cells is on record as “moderate cytotoxic activity”. In addition, the anticholinesterase activity result in the series on cholinesterase is given as “weak anticholinesterase activity”.
For the molecule `C=C1CC/C=C(/CO)C(=O)C[C@@H]2[C@@H]1CC2(C)C` [Compound 8, (1S,9R)-14-hydroxycaryophyll-5(6)-en-7-one], the “cytotoxic activity against HeLa cells” value with HeLa cells is reported as “moderate cytotoxic activity”. Moreover, the “cytotoxic activity against A549 cells” value in the series on A549 cells is on record as “moderate cytotoxic activity”. In the series with cholinesterase, the anticholinesterase activity entry is given as “weak anticholinesterase activity”.
As to `COc1cccc2c1C(=O)c1c(O)c3c(c(O)c1C2=O)C[C@@](O)(C(=O)CO)C[C@@H]3O[C@H]1C[C@H](N)[C@H](O)[C@H](C)O1` [Doxorubicin, reference compound], the half-inhibitory concentration (IC50) was 1.38 µg/mL in the series with PNT-2 cells (setting [1]); 3.18 µg/mL with DU145 cells (setting [2]); more than 50 µg/mL with PC3 cells (5–100 μg/mL); 4.68 µg/mL with HaCaT cells (setting [3]); 0.59 µg/mL in the series on A375 cells (setting [4]); 5.71 µg/mL with HTB140 cells (setting [5]).
